Tests used:
Test in all cases: NCI 60 cell panel SRB screen
HL-60(TB) = format: cell-based; details: Homo sapiens; for activity at 10 µM: single dose 10 μM, read-out: percent cell growth promotion
SR = format: cell-based; details: Homo sapiens; for activity at 10 µM: single dose 10 μM, read-out: percent cell growth promotion
HOP-62 = format: cell-based; details: Homo sapiens; for activity at 10 µM: HOP-62, single dose 10 μM, read-out: percent cell growth promotion
NCI-H226 = format: cell-based; details: Homo sapiens; for activity at 10 µM: NCI-H226, single dose 10 μM, read-out: percent cell growth promotion
COLO 205 = format: cell-based; details: Homo sapiens; for activity at 10 µM: COLO 205, single dose 10 μM, read-out: percent cell growth promotion
HCC-2998 = format: cell-based; details: Homo sapiens; for activity at 10 µM: HCC-2998, single dose 10 μM, read-out: percent cell growth promotion
HCT-15 = format: cell-based; details: Homo sapiens; for activity at 10 µM: HCT-15, single dose 10 μM, read-out: percent cell growth promotion
SNB-19 = format: cell-based; details: Homo sapiens; for activity at 10 µM: SNB-19, single dose 10 μM, read-out: percent cell growth promotion
MALME-3M = format: cell-based; details: Homo sapiens; for activity at 10 µM: read-out: percent cell growth promotion
M14 = format: cell-based; details: Homo sapiens; for activity at 10 µM: M14, read-out: percent cell growth promotion
SK-MEL-28 = format: cell-based; details: Homo sapiens; for activity at 10 µM: SK-MEL-28, read-out: percent cell growth promotion
OVCAR-8 = format: cell-based; details: Homo sapiens; for activity at 10 µM: OVCAR-8, single dose 10 μM, read-out: percent cell growth promotion
786-0 = format: cell-based; details: Homo sapiens; for activity at 10 µM: 786-0, single dose 10 μM, read-out: percent cell growth promotion
A498 = format: cell-based; details: Homo sapiens; for activity at 10 µM: A498, single dose 10 μM, read-out: percent cell growth promotion
CAKI-1 = format: cell-based, human; details: Homo sapiens; CAKI-1, single dose 10 μM; read-out: percent cell growth promotion
RXF 393 = format: cell-based; details: Homo sapiens; for activity at 10 µM: RXF 393, single dose 10 μM, read-out: percent cell growth promotion
PC-3 = format: cell-based; details: Homo sapiens; for activity at 10 µM: PC-3, single dose 10 μM, read-out: percent cell growth promotion
DU-145 = format: cell-based; details: Homo sapiens; for activity at 10 µM: DU-145, single dose 10 μM, read-out: percent cell growth promotion
BT-549 = format: cell-based; details: Homo sapiens; for activity at 10 µM: BT-549, read-out: percent cell growth promotion
[1] = 5 log dose, 48 h, read-out: LC50 (the source's name)

COc1cccc(NCc2nnc(Nc3ccc(Cl)cc3)c3ccccc23)c1 [Compound 16d, N-(4-Chlorophenyl)-4-((3-methoxyphenylamino)methyl)phthalazin-1-amine]
GI50 (HL-60(TB); 5 log dose): 3.78 µM | IC (TGI) (HL-60(TB); 5 log dose): 13.1 µM | CC50 (HL-60(TB); [1]): > 25 µM | activity at 10 µM (HL-60(TB)): -27.1% | GI50 (SR; 5 log dose): 0.97 µM | IC (TGI) (SR; 5 log dose): 8.85 µM | CC50 (SR; [1]): > 25 µM | activity at 10 µM (SR): -24.5% | GI50 (HOP-62; HOP-62, 5 log dose): 2.06 µM | IC (TGI) (HOP-62; HOP-62, 5 log dose): 8.48 µM | CC50 (HOP-62; HOP-62, 5 log dose, 48 h, read-out: LC50 (the source's name)): > 25 µM | activity at 10 µM (HOP-62): -17.1% | GI50 (NCI-H226; NCI-H226, 5 log dose): 0.95 µM | IC (TGI) (NCI-H226; NCI-H226, 5 log dose): 6.82 µM | CC50 (NCI-H226; NCI-H226, 5 log dose, 48 h, read-out: LC50 (the source's name)): > 25 µM | activity at 10 µM (NCI-H226): -22.9% | GI50 (COLO 205; COLO 205, 5 log dose): 0.49 µM | IC (TGI) (COLO 205; COLO 205, 5 log dose): 4.01 µM | CC50 (COLO 205; COLO 205, 5 log dose, 48 h, read-out: LC50 (the source's name)): 15.4 µM | activity at 10 µM (COLO 205): -22.2% | GI50 (HCC-2998; HCC-2998, 5 log dose): 3.44 µM | IC (TGI) (HCC-2998; HCC-2998, 5 log dose): 8.79 µM | LC50 (50% lethal concentration) (HCC-2998; HCC-2998, 5 log dose, 48 h): 22.5 µM | activity at 10 µM (HCC-2998): 2.79% | GI50 (HCT-15; HCT-15, 5 log dose): 1.78 µM | IC (TGI) (HCT-15; HCT-15, 5 log dose): 7.56 µM | CC50 (HCT-15; HCT-15, 5 log dose, 48 h, read-out: LC50 (the source's name)): > 25 µM | activity at 10 µM (HCT-15): -18.1% | GI50 (SNB-19; SNB-19, 5 log dose): 3.5 µM | IC (TGI) (SNB-19; SNB-19, 5 log dose): 13 µM | CC50 (SNB-19; SNB-19, 5 log dose, 48 h, read-out: LC50 (the source's name)): > 25 µM | activity at 10 µM (SNB-19): 17.8% | GI50 (MALME-3M; Malme-3M): 1.22 µM | IC (TGI) (MALME-3M; Malme-3M, read-out: TGI): 6.23 µM | activity at 10 µM (MALME-3M; Malme-3M): -22% | CC50 (MALME-3M; MALME-3M, 5 log dose, 48 h, read-out: LC50 (the source's name)): 17.3 µM | GI50 (M14; M14): 0.85 µM | IC (TGI) (M14; M14, read-out: TGI): 4.69 µM | activity at 10 µM (M14): -15.7% | CC50 (M14; M14, 5 log dose, 48 h, read-out: LC50 (the source's name)): 12.9 µM | GI50 (SK-MEL-28; SK-MEL-28): 2.62 µM | IC (TGI) (SK-MEL-28; SK-MEL-28, read-out: TGI): 6.17 µM | activity at 10 µM (SK-MEL-28): -16.1% | CC50 (SK-MEL-28; SK-MEL-28, 5 log dose, 48 h, read-out: LC50 (the source's name)): 14.5 µM | GI50 (OVCAR-8; OVCAR-8, 5 log dose): 3.61 µM | IC (TGI) (OVCAR-8; OVCAR-8, 5 log dose): 14.7 µM | CC50 (OVCAR-8; OVCAR-8, 5 log dose, 48 h, read-out: LC50 (the source's name)): > 25 µM | activity at 10 µM (OVCAR-8): 3.02% | GI50 (786-0; 786-0, 5 log dose): 2.22 µM | IC (TGI) (786-0; 786-0, 5 log dose): 7.63 µM | CC50 (786-0; 786-0, 5 log dose, 48 h, read-out: LC50 (the source's name)): 24.4 µM | activity at 10 µM (786-0): -5.76% | GI50 (A498; A498, 5 log dose): 1.27 µM | IC (TGI) (A498; A498, 5 log dose): 4.42 µM | CC50 (A498; A498, 5 log dose, 48 h, read-out: LC50 (the source's name)): 11.5 µM | activity at 10 µM (A498): -26.8% | activity at 10 µM (CAKI-1): 9.01% | GI50 (RXF 393; RXF 393, 5 log dose): 2.16 µM | IC (TGI) (RXF 393; RXF 393, 5 log dose): 6.11 µM | CC50 (RXF 393; RXF 393, 5 log dose, 48 h, read-out: LC50 (the source's name)): 15.9 µM | activity at 10 µM (RXF 393): -11.6% | GI50 (PC-3; PC-3, 5 log dose): 1.19 µM | IC (TGI) (PC-3; PC-3, 5 log dose): 9.33 µM | CC50 (PC-3; PC-3, 5 log dose, 48 h, read-out: LC50 (the source's name)): > 25 µM | activity at 10 µM (PC-3): -13.6% | GI50 (DU-145; DU-145, 5 log dose): 2.4 µM | IC (TGI) (DU-145; DU-145, 5 log dose): 6.52 µM | CC50 (DU-145; DU-145, 5 log dose, 48 h, read-out: LC50 (the source's name)): 17.2 µM | activity at 10 µM (DU-145): 8.3% | GI50 (BT-549; BT-549): 1.9 µM | IC (TGI) (BT-549; BT-549, read-out: TGI): 7.42 µM | activity at 10 µM (BT-549): -12.2% | CC50 (BT-549; BT-549, 5 log dose, 48 h, read-out: LC50 (the source's name)): 24.8 µM

CCOC(=O)N1CCN(c2nnc(C)c3ccccc23)CC1 [Compound 8f, Ethyl 4–(4-methylphthalazin-1-yl)piperazine-1-carboxylate]
activity at 10 µM (HL-60(TB)): 114% | activity at 10 µM (SR): 101% | activity at 10 µM (HOP-62): 100% | activity at 10 µM (NCI-H226): 103% | activity at 10 µM (COLO 205): 109% | activity at 10 µM (HCC-2998): 99.8% | activity at 10 µM (HCT-15): 98.6% | activity at 10 µM (SNB-19): 107% | activity at 10 µM (MALME-3M; Malme-3M): 102% | activity at 10 µM (M14): 104% | activity at 10 µM (SK-MEL-28): 113% | activity at 10 µM (OVCAR-8): 102% | activity at 10 µM (786-0): 93.3% | activity at 10 µM (A498): 76.5% | activity at 10 µM (CAKI-1): 90.3% | activity at 10 µM (RXF 393): 108% | activity at 10 µM (PC-3): 101% | activity at 10 µM (DU-145): 100% | activity at 10 µM (BT-549): 66.7%

Reference: PMC6691788, “Design and synthesis of phthalazine-based compounds as potent anticancer agents with potential antiangiogenic activity via VEGFR-2 inhibition” (Journal of Enzyme Inhibition and Medicinal Chemistry, 2019)
